The results in this text go back to patent US9427458B2, “Methods for inhibiting cancer cell proliferation” (Consejo Nacional de Investigaciones Cientificas y Tecnicas, …, priority 2010, dated 2016).

“Also recorded” adds a separate entry of the source.

In test [1] the test system is ErbB-2. The test can be described thus: ErbB-2 cellular localization (subcellular fractionation/immunoblot, confocal microscopy) in C4HD cells. It counts as cell-based, mouse. As to conditions: MPA treatment of C4HD cells, 15 to 60 min. As for the experimental part:
(§1) Lysates were prepared from cells subjected to the different treatments and proteins were subjected to SDS-PAGE as previously described (21). Membranes were immunoblotted with the antibodies detailed in each experiment. When phospho(p)-protein antibodies were used, filters were reprobed with total protein antibodies. Signal intensities of pErbB-2, pStat3, pSrc, pPR, pJak1, and pJak2 bands were analyzed by densitometry and normalized to total protein bands. Similarly, signal intensities of PR, cyclin D1, Stat3, and ErbB-2 bands were normalized to actin or β tubulin bands. […]
(§2) Cells grown on glass coverslips were fixed and permeabilized in ice-cold methanol and were then blocked with PBS 1% BSA. ErbB-2 was localized using either a rabbit polyclonal (C-18) or a mouse monoclonal (F-11) ErbB-2 antibody (Santa Cruz Biotechnology) and Stat3 was detected using a mouse monoclonal antibody (124H6, Cell Signaling), followed by incubation with a goat anti-rabbit IgG-Alexa 488 (Molecular Probes, Eugene, Oreg.) secondary antibody for ErbB-2 (C-18) and with a rhodamine conjugated goat anti-mouse secondary antibody (Jackson ImmunoResearch Laboratories, West Grove, Pa.) for both ErbB2 (F-11) and Stat3. […] When cells were transfected with hErbB-2ΔNLS, green fluorescent protein from this expression vector was visualized by direct fluorescence imaging. […]
(In general: A western blot detects proteins with antibodies after separation by electrophoresis.)

Test [2] deals with ErbB-2. The test can be described thus: ErbB-2 cellular localization (subcellular fractionation/immunoblot, confocal microscopy) in T47D cells. The class given is cell-based, human. The following applies: MPA treatment of T47D cells, 15 to 60 min. As for the experimental part:
as §1, §2

The subject of another test is Stat3. The experiment in a line: Stat3 phosphorylation and nuclear translocation in C4HD cells. It counts as cell-based, mouse. As to conditions: MPA treatment of C4HD cells. As for the experimental part:
Lysates were prepared from cells subjected to the different treatments and proteins were subjected to SDS-PAGE as previously described (21). Membranes were immunoblotted with the antibodies detailed in each experiment. When phospho(p)-protein antibodies were used, filters were reprobed with total protein antibodies. Signal intensities of pErbB-2, pStat3, pSrc, pPR, pJak1, and pJak2 bands were analyzed by densitometry and normalized to total protein bands. Similarly, signal intensities of PR, cyclin D1, Stat3, and ErbB-2 bands were normalized to actin or β tubulin bands. […] The NEPER Nuclear and Cytoplasmic Extraction Reagents technique (Pierce Biotechnology) was performed as per manufacturer's instructions. Nuclear association between ErbB-2 and Stat3 was studied by performing coimmunoprecipitation experiments using 200 μg of nuclear protein lysates as described (22).
siRNAs targeting ErbB-2, Stat3, and Pr were synthesized by Dharmacon, Inc (Lafayatte, Colo.) (ErbB-2siRNA: 5′GAUGGUGCUUACUCAUUGA3′ (SEQ ID NO:8), designed to specifically knockdown mouse ErbB2 but not human ErbB-2; Stat3siRNA: 5′[…]3′ (SEQ ID NO:9) targets mouse Stat3; and 5′[…]3′ (SEQ ID NO:10) targets human Stat3; PRsiRNA: 5′[…]3′(SEQ ID NO:11)). […] Transfection of siRNAs duplexes was performed by using the DharmaFECT transfection reagent following the manufacturer's direction for 3 days. For reconstitution experiments cotransfection of 25 nM ErbB-2 siRNA with 2 μg expression vectors was performed using DharmaFECT Duo transfection reagent (Dharmacon).
Cells grown on glass coverslips were fixed and permeabilized in ice-cold methanol and were then blocked with PBS 1% BSA. ErbB-2 was localized using either a rabbit polyclonal (C-18) or a mouse monoclonal (F-11) ErbB-2 antibody (Santa Cruz Biotechnology) and Stat3 was detected using a mouse monoclonal antibody (124H6, Cell Signaling), followed by incubation with a goat anti-rabbit IgG-Alexa 488 (Molecular Probes, Eugene, Oreg.) secondary antibody for ErbB-2 (C-18) and with a rhodamine conjugated goat anti-mouse secondary antibody (Jackson ImmunoResearch Laboratories, West Grove, Pa.) for both ErbB2 (F-11) and Stat3. Negative controls were carried out using PBS instead of primary antibodies, or 5× competitive peptide (Santa Cruz Biotechnology) when ErbB-2 (C-18) was used. When cells were transfected with hErbB-2ΔNLS, green fluorescent protein from this expression vector was visualized by direct fluorescence imaging. […] FIGS. 2A, 3B and C, illustrate a few cells representative of the ones examined. Cells were analyzed using a Nikon Eclipse E800 confocal laser microscopy system (22).

Consider `CC(=O)O[C@]1(C(C)=O)CC[C@H]2[C@@H]3C[C@H](C)C4=CC(=O)CC[C@]4(C)[C@H]3CC[C@@]21C` [MPA, Medroxyprogesterone acetate], for which the ErbB-2 nuclear translocation result in the test with ErbB-2 [1] and with ErbB-2 [2] was “resulted in ErbB-2 nuclear localization; also recorded: induced a strong ErbB-2 protein nuclear translocation” each time. The Stat3 nuclear translocation entry in the test with Stat3 (30 and 60 min) is “induced nuclear translocation of Stat3; also recorded: present at the nuclear compartment and strongly phosphorylated at Tyr 705”. The “nuclear colocalization of ErbB-2 and Stat3” value with Stat3 (30 min, confocal) was “strong nuclear colocalization”.
